Source: ChEMBL document CHEMBL1138469, “Structural basis for inhibitor specificity in human poly(ADP-ribose) polymerase-3” (J Med Chem, 2009)
Calls of active or inactive are those of the source. The calls are words filed in the database; no cut-off is given here.

How the values were obtained:
[1] = target: T1, Protein mono-ADP-ribosyltransferase PARP3 (Homo sapiens, UniProt Q9Y6F1); test: Binding affinity to human PARP3 PARP domain by isothermal titration […]
T1 sequence (Q9Y6F1 whole entry): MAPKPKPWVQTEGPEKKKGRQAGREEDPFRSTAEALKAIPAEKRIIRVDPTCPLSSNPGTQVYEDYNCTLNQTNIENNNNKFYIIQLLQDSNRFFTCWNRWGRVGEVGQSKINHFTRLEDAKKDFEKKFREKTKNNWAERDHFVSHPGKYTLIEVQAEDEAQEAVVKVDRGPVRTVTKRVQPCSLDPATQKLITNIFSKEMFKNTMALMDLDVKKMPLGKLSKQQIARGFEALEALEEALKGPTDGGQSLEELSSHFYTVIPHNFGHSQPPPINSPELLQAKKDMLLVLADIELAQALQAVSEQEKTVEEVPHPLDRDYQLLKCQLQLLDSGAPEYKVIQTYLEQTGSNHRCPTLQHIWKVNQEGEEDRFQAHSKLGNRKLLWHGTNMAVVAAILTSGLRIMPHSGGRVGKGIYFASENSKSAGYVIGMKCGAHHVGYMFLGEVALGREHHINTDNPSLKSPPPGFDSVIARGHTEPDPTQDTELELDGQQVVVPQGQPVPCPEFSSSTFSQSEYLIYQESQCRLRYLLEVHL

[2] = target: T2, Poly [ADP-ribose] polymerase 1 (Homo sapiens, UniProt P09874); test: Inhibition of human PARP1
[3] = target: T3, Protein mono-ADP-ribosyltransferase PARP3 (Homo sapiens) (UniProt Q9Y6F1); test: Inhibition of human PARP3 auto-ADP ribosylation by Western blotting
T3 sequence (whole entry): T1 sequence (Q9Y6F1 whole entry)

[4] = target: T2, Poly [ADP-ribose] polymerase 1
Description: Binding affinity to human PARP1 by isothermal titration colorimetry

T2 sequence (P09874 whole entry): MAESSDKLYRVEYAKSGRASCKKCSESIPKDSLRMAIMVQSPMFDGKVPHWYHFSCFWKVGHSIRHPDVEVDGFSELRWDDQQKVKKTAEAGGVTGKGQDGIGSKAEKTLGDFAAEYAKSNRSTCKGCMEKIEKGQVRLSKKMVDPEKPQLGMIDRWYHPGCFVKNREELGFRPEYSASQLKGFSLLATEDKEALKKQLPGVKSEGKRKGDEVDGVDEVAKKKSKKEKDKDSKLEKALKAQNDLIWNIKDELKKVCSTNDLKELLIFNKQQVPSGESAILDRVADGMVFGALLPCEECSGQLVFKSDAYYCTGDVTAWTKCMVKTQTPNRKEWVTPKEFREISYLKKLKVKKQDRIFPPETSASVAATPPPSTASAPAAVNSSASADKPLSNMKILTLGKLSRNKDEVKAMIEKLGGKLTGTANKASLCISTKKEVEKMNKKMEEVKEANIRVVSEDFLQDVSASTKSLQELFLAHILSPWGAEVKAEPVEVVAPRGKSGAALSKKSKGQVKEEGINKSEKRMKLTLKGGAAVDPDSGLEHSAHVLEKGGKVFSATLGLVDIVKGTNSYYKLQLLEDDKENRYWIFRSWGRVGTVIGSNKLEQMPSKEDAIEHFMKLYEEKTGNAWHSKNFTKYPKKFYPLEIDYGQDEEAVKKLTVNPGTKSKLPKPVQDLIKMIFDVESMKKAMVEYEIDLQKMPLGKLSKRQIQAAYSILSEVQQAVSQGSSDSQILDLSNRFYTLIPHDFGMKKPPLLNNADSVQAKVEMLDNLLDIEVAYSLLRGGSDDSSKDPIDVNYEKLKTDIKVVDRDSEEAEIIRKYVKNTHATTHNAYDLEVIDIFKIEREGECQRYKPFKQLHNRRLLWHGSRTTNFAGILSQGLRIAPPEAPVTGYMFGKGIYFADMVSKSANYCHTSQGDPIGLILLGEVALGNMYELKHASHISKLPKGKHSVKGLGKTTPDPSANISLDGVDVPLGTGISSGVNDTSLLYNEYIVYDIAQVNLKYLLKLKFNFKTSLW

Kd [1] [nM] | IC50 [2] [nM] | Activity [3] | Kd [4] [nM] | Compound
> 2000 | – | – | – | Nc1cccc(C(=O)O)c1 [3-AMINOBENZOIC ACID]
– | 3.4 | Active | 19 | O=C(c1cc(Cc2n[nH]c(=O)c3ccccc23)ccc1F)N1CCCNCC1
